Reference: publication PMC8760323, “Single-chain tandem macrocyclic peptides as a scaffold for growth factor and cytokine mimetics” (Communications Biology, 2022)
Positions of bridges follow the written chain, without caps; N, C: chain ends. No end group written: not given here.

Legend:
[1] = target: T1, recombinant human Met ectodomain-Fc (Homo sapiens, UniProt P08581); test: SPR analysis, human Met ectodomain; assay type: binding
T1 construct: recombinant human Met ectodomain-Fc; purchased R&D Systems
T1 sequence (P08581 25-932 limits assumed): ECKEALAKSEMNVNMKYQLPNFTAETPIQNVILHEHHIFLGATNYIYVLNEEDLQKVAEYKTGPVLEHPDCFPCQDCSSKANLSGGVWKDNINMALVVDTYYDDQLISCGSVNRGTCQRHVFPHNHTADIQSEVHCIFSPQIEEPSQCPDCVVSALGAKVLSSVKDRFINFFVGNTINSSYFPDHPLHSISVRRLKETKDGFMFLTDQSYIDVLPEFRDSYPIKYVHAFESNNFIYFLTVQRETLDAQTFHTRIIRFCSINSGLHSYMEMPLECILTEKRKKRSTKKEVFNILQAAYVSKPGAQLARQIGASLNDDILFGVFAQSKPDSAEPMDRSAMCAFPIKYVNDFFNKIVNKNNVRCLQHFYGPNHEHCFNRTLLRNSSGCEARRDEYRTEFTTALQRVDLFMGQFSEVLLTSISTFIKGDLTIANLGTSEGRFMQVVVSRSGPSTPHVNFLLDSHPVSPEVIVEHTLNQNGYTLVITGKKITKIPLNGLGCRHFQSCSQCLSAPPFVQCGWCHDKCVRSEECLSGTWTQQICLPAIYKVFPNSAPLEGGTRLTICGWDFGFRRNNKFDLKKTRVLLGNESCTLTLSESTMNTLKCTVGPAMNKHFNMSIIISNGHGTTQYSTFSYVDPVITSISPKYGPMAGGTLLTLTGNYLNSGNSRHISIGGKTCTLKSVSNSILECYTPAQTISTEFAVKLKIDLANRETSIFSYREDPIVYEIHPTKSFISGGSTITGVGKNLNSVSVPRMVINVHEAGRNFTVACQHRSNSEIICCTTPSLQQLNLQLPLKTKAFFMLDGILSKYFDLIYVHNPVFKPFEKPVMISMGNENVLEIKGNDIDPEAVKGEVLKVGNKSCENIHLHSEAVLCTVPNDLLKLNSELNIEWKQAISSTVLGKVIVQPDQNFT
Experimental: Binding constants of the STaMPtides and monomeric macrocyclic peptides to their corresponding receptor ectodomains were determined by SPR analysis using Biacore T200 (Cytiva). HBS-EP + buffer (Cytiva) containing 0.1% dimethyl sulfoxide (DMSO; Sigma-Aldrich, St. Louis, MO, USA) was used as the running buffer. As ligands, recombinant human Met ectodomain-Fc and human EPOR ectodomain-Fc were immobilized to around 1000 response units on CM5 sensor chips using a human antibody capture kit (Cytiva). STaMPtides and monomeric macrocyclic peptides were injected in five concentrations at a flow rate of 30 μL/min using a single-cycle kinetics method. Binding constants were quantified by analysis of the 1:1 binding model.

[2] = system: Met; test: Cell-based phospho-Met ELISA (HuCCT1 cells); set-up: species or system human; settings: phospho-Met ELISA and Erk signaling reporter assay
Experimental: The phosphorylation level of Met was evaluated according to a previously reported method[6],[32], with slight modifications. In brief, HuCCT-1 cells at a density of 10,000 cells/well were seeded on 96-well cell culture plates and incubated overnight in 5% CO2 at 37 °C. The cells were stimulated by rhHGF, purified HGF mimetic STaMPtides, and monomeric aMD4dY for 10 min in a 5% CO2 incubator at 37 °C. Next, cells were fixed using 4% paraformaldehyde in phosphate-buffered saline (PBS) for 20 min. Cells were washed three times with PBS and blocked with 1% BSA and 0.02% Triton X-100 in PBS for 30 min at room temperature. Cells were incubated with 1:1000 diluted phospho-Met (Tyr1234/1235) (D26) XP Rabbit mAb (Cell Signaling Technology) supplemented with 1% BSA in PBS at 4 °C overnight. After washing three times with PBS, the cells were incubated with 1:1000 diluted […] HRP-linked IgG antibody (Cell Signaling Technology) supplemented with 1% BSA in PBS at room temperature for 3 h. Cells were washed four times with PBS and incubated with 100 μL TMB substrate for 30 min. The reaction was stopped with an equal volume of 0.2 N sulfuric acid, and absorbance was quantified at 450 nm by the Molecular Imager ChemiDoc XRS System (Bio-Rad).

[3] = system: HEL cells; test: Phospho-CREB ELISA; assay type: cell-based, human
Experimental: Here, 100,000 HEL cells were seeded on a 96-well cell culture plate in RPMI 1640 medium and incubated overnight for starvation. The starved cells were stimulated by rhTPO or TMP-PA8 for 20 min, rinsed once with PBS, and lysed with lysis buffer 17 supplemented with a protease inhibitor cocktail. The phosphorylation level of CREB was assessed using phospho-CREB (Ser133) and the Total CREB ELISA kit (RayBio) according to the manufacturer’s instructions. The amounts of phospho-CREB and total CREB were quantified by measuring absorbance at 450 nm, and the phospho-CREB level was calculated as (absorbance of pCREB)/(absorbance of total CREB).

[4] = system: HEL cells; test: Phosphokinase array (TPO signal cascade); assay type: cell-based, human; settings: 5.4 nM rhTPO or 1:1000 diluted TMP-PA8 supernatant, 20 min
Experimental: The TPO signal cascade was analyzed using the Proteome Profiler Human Phosphokinase Array Kit (R&D Systems). Briefly, 1 × 10^6 HEL cells in a 6-well cell culture dish were starved in RPMI 1640 medium for 24 h. The starved cells were stimulated by 5.4 nM rhTPO or 1:1000 diluted TMP-PA8 containing a C. glutamicum supernatant for 20 min, rinsed once with PBS, and lysed with 200 μL of lysis buffer 17 supplemented with a protease inhibitor cocktail. Lysates were analyzed using the Proteome Profiler Human Phosphokinase Array Kit (R&D Systems) according to the manufacturer’s instructions. Chemiluminescence was detected using Amersham Imager 600 (Cytiva).

[5] = target: T2, Recombinant human Met ectodomain-Fc (human, UniProt P08581 25-932); test: SPR; Biacore T200; receptor ectodomain-Fc immobilised to around 1000 RU on CM5 chips with a human antibody capture kit; peptides injected in five concentrations at 30 uL/min, single-cycle kinetics; HBS-EP+ buffer with 0.1% DMSO; 1:1 binding model; mean and SD of triplicate experiments; settings: both partners purified
T2 construct: Met, receptor of hepatocyte growth factor, human, ectodomain; Captured on the chip with a human antibody capture kit, by its Fc; also called Met-Fc; source: bought: R&D Systems
T2 sequence (P08581 25-932): as the sequence (P08581 25-932 limits assumed) above

## aMD4dY: modified macrocyclic Met-binding peptide: aMD4 without N-terminal D-Tyr, disulfide instead of thioether linkage (CRQFNRRTHEVWNLDC-OH; disulfide 1-16; N-terminus assumed; SMILES CC(C)C[C@@H]1NC(=O)[C@H](CC(N)=O)NC(=O)[C@H](Cc2c[nH]c3ccccc23)NC(=O)[C@H](C(C)C)NC(=O)[C@H](CCC(=O)O)NC(=O)[C@H](Cc2c[nH]cn2)NC(=O)[C@H]([C@@H](C)O)NC(=O)[C@H](CCCNC(=N)N)NC(=O)[C@H](CCCNC(=N)N)NC(=O)[C@H](CC(N)=O)NC(=O)[C@H](Cc2ccccc2)NC(=O)[C@H](CCC(N)=O)NC(=O)[C@H](CCCNC(=N)N)NC(=O)[C@@H](N)CSSC[C@@H](C(=O)O)NC(=O)[C@H](CC(=O)O)NC1=O)
[1]
  binding to human Met: retained its binding capacity to human Met
[1]; Table S1, Average of N 1-3
  kd: 0.045 M⁻¹ s⁻¹
[1]; Table S1, N 1
  KD: 39 nM
  kd: 0.04 M⁻¹ s⁻¹
[1]; Table S1, N 2
  KD: 53 nM
  kd: 0.05 M⁻¹ s⁻¹
[1]; Table S1, N 3
  KD: 44 nM
  kd: 0.044 M⁻¹ s⁻¹
[2]
  Met phosphorylation and Erk-SRE signaling activation: did not activate Met

## rhTPO: recombinant human TPO (Peprotech)
[3]; 7.375 pM, replicate 1
  Normazlied pCREB/CREB: 1.252
[3]; 7.375 pM, replicate 2
  Normazlied pCREB/CREB: 0.9311
[3]; 7.375 pM, replicate 3
  Normazlied pCREB/CREB: 0.9649
[3]; 22.12 pM, replicate 1
  Normazlied pCREB/CREB: 1.113
[3]; 22.12 pM, replicate 2
  Normazlied pCREB/CREB: 1.1408
[3]; 22.12 pM, replicate 3
  Normazlied pCREB/CREB: 1.274
[3]; 66.37 pM, replicate 1
  Normazlied pCREB/CREB: 1.03
[3]; 66.37 pM, replicate 2
  Normazlied pCREB/CREB: 1.312
[3]; 66.37 pM, replicate 3
  Normazlied pCREB/CREB: 1.353
[3]; 199.1 pM, replicate 1
  Normazlied pCREB/CREB: 1.208
[3]; 199.1 pM, replicate 2
  Normazlied pCREB/CREB: 1.421
[3]; 199.1 pM, replicate 3
  Normazlied pCREB/CREB: 1.637
[3]; 597.4 pM, replicate 1
  Normazlied pCREB/CREB: 1.281
[3]; 597.4 pM, replicate 2
  Normazlied pCREB/CREB: 1.5026
[3]; 597.4 pM, replicate 3
  Normazlied pCREB/CREB: 1.479
[3]; 1.79211e-9 M, replicate 1
  Normazlied pCREB/CREB: 1.452
[3]; 1.79211e-9 M, replicate 2
  Normazlied pCREB/CREB: 1.237
[3]; 1.79211e-9 M, replicate 3
  Normazlied pCREB/CREB: 1.5195
[3]; 5.37634e-9 M, replicate 1
  Normazlied pCREB/CREB: 1.523
[3]; 5.37634e-9 M, replicate 2
  Normazlied pCREB/CREB: 0.9969
[3]; 5.37634e-9 M, replicate 3
  Normazlied pCREB/CREB: 1.102
[3]; at concentrations of 0.1-1 nM
  promotion of CREB phosphorylation: 1.5 fold
[4]
  phosphorylation of STAT3, STAT5, Erk1/2 and CREB compared with unstimulated cells: enhanced

B1: aMD4dY (peptide)
peptide: CRQFNRRTHEVWNLDC-OH
modifications: disulfide 1-16; N-terminus assumed
SMILES: CC(C)C[C@@H]1NC(=O)[C@H](CC(N)=O)NC(=O)[C@H](Cc2c[nH]c3ccccc23)NC(=O)[C@H](C(C)C)NC(=O)[C@H](CCC(=O)O)NC(=O)[C@H](Cc2c[nH]cn2)NC(=O)[C@H]([C@@H](C)O)NC(=O)[C@H](CCCNC(=N)N)NC(=O)[C@H](CCCNC(=N)N)NC(=O)[C@H](CC(N)=O)NC(=O)[C@H](Cc2ccccc2)NC(=O)[C@H](CCC(N)=O)NC(=O)[C@H](CCCNC(=N)N)NC(=O)[C@@H](N)CSSC[C@@H](C(=O)O)NC(=O)[C@H](CC(=O)O)NC1=O
notes: also called aMD4dY (Monomer); monomeric aMD4dY; source: synthetic peptide (GenScript Japan)
[5]
  Kd: 45 nM
